Laboratory results from patent US9884063B2, “Amido-substituted azole compounds” (Bayer Pharma Aktiengesellschaft, priority 2014, dated 2018).

Assays:
[1] = target: T1, TNKS2 (Homo sapiens, UniProt Q9H2K2); assay: Modified TNKS2 Assay 3 (BPS kit #80578, biotin-NAD+, 96 well); assay type: biochemical; settings: human TNKS2, BPS kit #80578, 96 well
T1 sequence (Q9H2K2 1-1166): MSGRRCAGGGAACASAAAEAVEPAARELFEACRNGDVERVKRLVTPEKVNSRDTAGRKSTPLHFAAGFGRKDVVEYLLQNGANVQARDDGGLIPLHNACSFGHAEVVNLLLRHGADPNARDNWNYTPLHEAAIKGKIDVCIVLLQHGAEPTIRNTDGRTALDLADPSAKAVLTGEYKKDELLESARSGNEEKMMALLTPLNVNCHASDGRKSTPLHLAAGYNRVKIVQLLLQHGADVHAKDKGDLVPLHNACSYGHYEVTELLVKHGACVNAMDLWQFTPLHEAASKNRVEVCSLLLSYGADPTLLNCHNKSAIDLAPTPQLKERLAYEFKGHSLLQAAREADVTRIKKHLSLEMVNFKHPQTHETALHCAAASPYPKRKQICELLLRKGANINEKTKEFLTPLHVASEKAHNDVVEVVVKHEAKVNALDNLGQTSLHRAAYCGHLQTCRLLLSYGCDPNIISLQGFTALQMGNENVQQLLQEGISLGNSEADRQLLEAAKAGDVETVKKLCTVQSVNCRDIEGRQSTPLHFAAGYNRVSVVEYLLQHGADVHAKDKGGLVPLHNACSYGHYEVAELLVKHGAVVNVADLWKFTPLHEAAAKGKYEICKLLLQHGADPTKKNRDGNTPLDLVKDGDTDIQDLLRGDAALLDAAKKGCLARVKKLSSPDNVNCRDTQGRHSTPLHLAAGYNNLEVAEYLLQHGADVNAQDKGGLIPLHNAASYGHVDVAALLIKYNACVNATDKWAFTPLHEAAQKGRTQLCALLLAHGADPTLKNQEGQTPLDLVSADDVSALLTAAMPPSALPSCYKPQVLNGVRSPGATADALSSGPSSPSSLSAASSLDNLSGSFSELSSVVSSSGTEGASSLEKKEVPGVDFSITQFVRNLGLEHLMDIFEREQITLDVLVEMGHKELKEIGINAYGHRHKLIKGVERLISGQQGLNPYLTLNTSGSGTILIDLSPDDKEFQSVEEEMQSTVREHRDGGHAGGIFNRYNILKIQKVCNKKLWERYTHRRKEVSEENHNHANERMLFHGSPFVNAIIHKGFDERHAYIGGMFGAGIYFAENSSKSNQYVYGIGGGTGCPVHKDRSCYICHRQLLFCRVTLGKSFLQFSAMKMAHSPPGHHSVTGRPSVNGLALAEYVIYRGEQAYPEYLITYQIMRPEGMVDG
In short: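 Commercial kit assay measuring TNKS2-catalysed incorporation of biotin-labelled NAD+ into a protein substrate, detected by streptavidin-HRP chemiluminescence. Run per manufacturer's protocol; IC50 is the concentration halving the normalised signal.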

[2] = system: wildtype Wnt signaling cascade; assay: HEK293 TOP Assay (Super TopFlash luciferase reporter, Wnt-3a stimulated); assay type: cell-based; settings: Homo sapiens, HEK293, 16 h, HEK293 TOP reporter cell line, Wnt-3a at EC50, 16 hours incubation, compound dilution series 50 μM to 15 nM
In short: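 HEK293 cells stably carrying Super TopFlash (TOP) or FOP reporter, stimulated with recombinant human Wnt-3a (2500–5 ng/ml, two-fold steps). Both lines incubated in parallel with compound from 50 μM to 15 nM (3.16-fold) in CAFTY buffer pH 7.4 with 2 mM Ca2+ and 0.01% BSA; selectivity judged TOP vs FOP.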

IC50 [1]: 4 nM | IC50 [2]: 60 nM
Compound: O=C(Nc1ccc(NC(=O)c2[nH]cnc2C(=O)NCCN2CCCCC2)cn1)c1ccc(F)cc1Cl [Example 110, N^5-{6-[(2-chloro-4-fluorobenzoyl)amino]pyridin-3-yl}-N^4-[2-(piperidin-1-yl)ethyl]-1H-imidazole-4,5-dicarboxamide]
